Test results published in PubChem BioAssay (NCI).
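Results reflect a 48-hour exposure of cells in 96-well plates to compound at five concentrations. GI50: concentration for 50% inhibition of growth. Definition used: TGI = concentration required for complete inhibition of growth.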

Legend:
Assay in all cases: inhibition of tumour cell growth, NCI panel, 48 h
[1] = test system: HS 578T breast
[2] = test system: OVCAR-3 ovarian
[3] = test system: SNB-19 CNS
[4] = test system: HCC-2998 colon
[5] = test system: T-47D breast
[6] = test system: SF-539 CNS
[7] = test system: UACC-62 melanoma
[8] = test system: MDA-MB-435
[9] = test system: KM12 colon
[10] = test system: HOP-92 NSCLC
[11] = test system: BT-549 breast
[12] = test system: RPMI-8226 leukemia
[13] = test system: OVCAR-5 ovarian
[14] = test system: ACHN renal
[15] = test system: NCI-H226 lung
[16] = test system: A498 renal
[17] = test system: OVCAR-8 ovarian
[18] = test system: NCI/ADR-RES ovarian
[19] = test system: MDA-MB-231 breast
[20] = test system: SR leukemia
[21] = test system: HOP-62 NSCLC
[22] = test system: UO-31 renal
[23] = test system: HCT-15 colon
[24] = test system: U251 CNS
[25] = test system: OVCAR-4 ovarian
[26] = test system: RXF 393 renal
[27] = test system: K-562 leukemia
[28] = test system: PC-3 prostate
[29] = test system: CCRF-CEM leukemia
[30] = test system: NCI-H522 lung
[31] = test system: A549 NSCLC
[32] = test system: SF-268 CNS
[33] = test system: TK-10 renal
[34] = test system: CAKI-1 renal
[35] = test system: SK-MEL-5 melanoma
[36] = test system: MOLT-4 leukemia
[37] = test system: EKVX NSCLC
[38] = test system: COLO 205 colon
[39] = test system: HL-60(TB) leukemia
[40] = test system: SK-OV-3 ovarian
[41] = test system: HCT-116 colon
[42] = test system: LOX IMVI melanoma
[43] = test system: 786-0 renal
[44] = test system: SN12C renal
[45] = test system: NCI-H23 lung
[46] = test system: NCI-H460 lung
[47] = test system: M14 melanoma
[48] = test system: SW-620 colon
[49] = test system: SK-MEL-2 melanoma
[50] = test system: UACC-257 melanoma
[51] = test system: HT29 colon
[52] = test system: SK-MEL-28 melanoma
[53] = test system: IGROV1 ovarian
[54] = test system: MCF7 breast
[55] = test system: MALME-3M melanoma
[56] = test system: DU-145 prostate
[57] = test system: SNB-75 CNS
[58] = test system: SF-295 CNS

Compound: C=CC(=O)N[C@H]1CCOC[C@H]1Nc1ncc2cc(-c3c(Cl)c(OC)cc(OC)c3Cl)ccc2n1
- GI50 [1]: 17.8 µM
- TGI [1]: > 100 µM
- GI50 [2]: 20.3 µM
- TGI [2]: > 100 µM
- GI50 [3]: 26.5 µM
- TGI [3]: > 100 µM
- GI50 [4]: 32.7 µM
- TGI [4]: > 100 µM
- GI50 [5]: 7.51 µM
- TGI [5]: 85.5 µM
- GI50 [6]: 12.5 µM
- TGI [6]: 29.9 µM
- GI50 [7]: 10.7 µM
- TGI [7]: 30.6 µM
- GI50 [8]: 15.3 µM
- TGI [8]: 65.8 µM
- GI50 [9]: 27.1 µM
- TGI [9]: > 100 µM
- GI50 [10]: 5.38 µM
- TGI [10]: 51.3 µM
- GI50 [11]: 2.86 µM
- TGI [11]: 15.8 µM
- GI50 [12]: 9.04 µM
- TGI [12]: 61.5 µM
- GI50 [13]: 45.1 µM
- TGI [13]: > 100 µM
- GI50 [14]: 15.8 µM
- TGI [14]: > 100 µM
- GI50 [15]: 10.7 µM
- TGI [15]: 87.2 µM
- GI50 [16]: 3.36 µM
- TGI [16]: 33.7 µM
- GI50 [17]: 39.3 µM
- TGI [17]: > 100 µM
- GI50 [18]: 20.7 µM
- TGI [18]: > 100 µM
- GI50 [19]: 17.7 µM
- TGI [19]: > 100 µM
- GI50 [20]: 10.6 µM
- TGI [20]: > 100 µM
- GI50 [21]: 43 µM
- TGI [21]: > 100 µM
- GI50 [22]: 4.28 µM
- TGI [22]: > 100 µM
- GI50 [23]: 7.89 µM
- TGI [23]: 84.4 µM
- GI50 [24]: 26.5 µM
- TGI [24]: > 100 µM
- GI50 [25]: 6.05 µM
- TGI [25]: > 100 µM
- GI50 [26]: 5.35 µM
- TGI [26]: 36.7 µM
- GI50 [27]: 13.9 µM
- TGI [27]: > 100 µM
- GI50 [28]: 14.8 µM
- TGI [28]: > 100 µM
- GI50 [29]: 21.9 µM
- TGI [29]: > 100 µM
- GI50 [30]: 30.9 µM
- TGI [30]: > 100 µM
- GI50 [31]: 30.5 µM
- TGI [31]: > 100 µM
- GI50 [32]: 16.2 µM
- TGI [32]: > 100 µM
- GI50 [33]: 31.8 µM
- TGI [33]: > 100 µM
- GI50 [34]: 12.5 µM
- TGI [34]: > 100 µM
- GI50 [35]: 7.06 µM
- TGI [35]: 20.9 µM
- GI50 [36]: 6.43 µM
- TGI [36]: > 100 µM
- GI50 [37]: 4.31 µM
- TGI [37]: 94.3 µM
- GI50 [38]: 13.8 µM
- TGI [38]: 29.5 µM
- GI50 [39]: 12 µM
- TGI [39]: 64.5 µM
- GI50 [40]: 26.9 µM
- TGI [40]: > 100 µM
- GI50 [41]: 12.7 µM
- TGI [41]: 57.2 µM
- GI50 [42]: 14.9 µM
- TGI [42]: 48.9 µM
- GI50 [43]: 17.5 µM
- TGI [43]: > 100 µM
- GI50 [44]: 16.2 µM
- TGI [44]: > 100 µM
- GI50 [45]: 22 µM
- TGI [45]: > 100 µM
- GI50 [46]: 13.8 µM
- TGI [46]: > 100 µM
- GI50 [47]: 11.8 µM
- TGI [47]: 40.2 µM
- GI50 [48]: 27.5 µM
- TGI [48]: > 100 µM
- GI50 [49]: 11.9 µM
- TGI [49]: 31.7 µM
- GI50 [50]: 32.3 µM
- TGI [50]: > 100 µM
- GI50 [51]: 13.2 µM
- TGI [51]: > 100 µM
- GI50 [52]: 18.3 µM
- TGI [52]: 80.2 µM
- GI50 [53]: 23.7 µM
- TGI [53]: > 100 µM
- GI50 [54]: 5.65 µM
- TGI [54]: 51 µM
- GI50 [55]: 13.1 µM
- TGI [55]: 64 µM
- GI50 [56]: 24.4 µM
- TGI [56]: > 100 µM
- GI50 [57]: 12 µM
- TGI [57]: > 100 µM
- GI50 [58]: 16 µM
- TGI [58]: > 100 µM
